Experimental data: patent US9957247B2, “SecA inhibitors and methods of making and using thereof” (Georgia State University Research Foundation, Inc., priority 2012, dated 2018)
pIC50: −log10 of the molar value. ≈ marks a conversion by molar mass, not a printed value. Where two headings read alike, the source gives them in different places.

Key:
[1] = target: MsSecA (Mycolicibacterium smegmatis, UniProt P71533); test: SecA-liposomes ion-channel activity in oocytes, MsSecA; format: cell-based; details: Table 1
[2] = target: T1, SaSecA1 (Staphylococcus aureus, UniProt O06446); test: cell-based
T1 sequence (O06446 1-843): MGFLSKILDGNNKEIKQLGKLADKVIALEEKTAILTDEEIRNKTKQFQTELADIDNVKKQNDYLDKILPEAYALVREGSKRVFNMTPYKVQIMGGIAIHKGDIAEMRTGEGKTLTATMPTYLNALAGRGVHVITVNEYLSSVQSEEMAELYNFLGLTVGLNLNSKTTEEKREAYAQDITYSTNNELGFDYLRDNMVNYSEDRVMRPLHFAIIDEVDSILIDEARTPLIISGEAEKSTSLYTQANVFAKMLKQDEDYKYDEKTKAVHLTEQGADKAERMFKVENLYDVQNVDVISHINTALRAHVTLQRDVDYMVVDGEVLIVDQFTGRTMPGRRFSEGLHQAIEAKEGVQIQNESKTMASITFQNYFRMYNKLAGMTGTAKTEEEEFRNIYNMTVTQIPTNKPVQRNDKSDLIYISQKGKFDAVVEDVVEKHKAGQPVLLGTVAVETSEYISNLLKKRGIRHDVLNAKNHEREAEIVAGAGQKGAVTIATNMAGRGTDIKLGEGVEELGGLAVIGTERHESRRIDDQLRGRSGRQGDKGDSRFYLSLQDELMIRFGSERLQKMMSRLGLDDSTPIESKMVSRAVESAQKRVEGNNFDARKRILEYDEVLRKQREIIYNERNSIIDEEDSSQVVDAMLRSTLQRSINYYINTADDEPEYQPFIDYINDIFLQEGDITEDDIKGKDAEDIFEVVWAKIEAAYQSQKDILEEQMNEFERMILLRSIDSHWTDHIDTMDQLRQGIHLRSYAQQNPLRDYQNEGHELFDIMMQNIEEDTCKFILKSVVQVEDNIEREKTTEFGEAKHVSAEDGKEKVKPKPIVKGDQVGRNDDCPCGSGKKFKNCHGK

[3] = system: secretion of α-hemolysin, enterotoxin B and TSST-1 by S. aureus Mu50; format: cell-based
[4] = target: EcSecA N68 (Escherichia coli, UniProt P10408); test: biochemical; format: biochemical, E. coli
Chain of EcSecA N68 (P10408 1-610): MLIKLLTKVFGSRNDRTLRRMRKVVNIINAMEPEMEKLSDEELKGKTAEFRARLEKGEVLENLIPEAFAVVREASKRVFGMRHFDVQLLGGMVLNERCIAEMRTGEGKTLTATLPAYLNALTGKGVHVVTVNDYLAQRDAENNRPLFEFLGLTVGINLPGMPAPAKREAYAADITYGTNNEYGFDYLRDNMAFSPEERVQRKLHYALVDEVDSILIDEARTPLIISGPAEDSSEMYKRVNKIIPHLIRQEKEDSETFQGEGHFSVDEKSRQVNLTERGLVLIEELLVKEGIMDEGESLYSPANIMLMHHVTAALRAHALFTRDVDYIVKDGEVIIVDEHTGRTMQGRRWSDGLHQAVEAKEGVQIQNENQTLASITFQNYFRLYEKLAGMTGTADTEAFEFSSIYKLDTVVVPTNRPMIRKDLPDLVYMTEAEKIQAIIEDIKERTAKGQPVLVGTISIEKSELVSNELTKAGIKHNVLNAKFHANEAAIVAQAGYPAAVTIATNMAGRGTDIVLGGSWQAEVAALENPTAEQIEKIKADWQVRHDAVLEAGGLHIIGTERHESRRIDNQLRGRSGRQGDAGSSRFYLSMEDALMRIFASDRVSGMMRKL

[5] = system: S. aureus Mu50; test: Bacteriostatic effect, S. aureus Mu50; details: for MIC: Staphylococcus aureus
[6] = target: T2, EcSecA (Escherichia coli, UniProt P10408); test: biochemical; details: IC50, Translocation ATPase, Table 1
Target sequence in this assay (P0AG99 whole entry): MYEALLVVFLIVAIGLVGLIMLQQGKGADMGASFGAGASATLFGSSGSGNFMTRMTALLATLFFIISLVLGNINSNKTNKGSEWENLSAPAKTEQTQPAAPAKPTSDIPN
Target sequence in this assay (P10408 whole entry): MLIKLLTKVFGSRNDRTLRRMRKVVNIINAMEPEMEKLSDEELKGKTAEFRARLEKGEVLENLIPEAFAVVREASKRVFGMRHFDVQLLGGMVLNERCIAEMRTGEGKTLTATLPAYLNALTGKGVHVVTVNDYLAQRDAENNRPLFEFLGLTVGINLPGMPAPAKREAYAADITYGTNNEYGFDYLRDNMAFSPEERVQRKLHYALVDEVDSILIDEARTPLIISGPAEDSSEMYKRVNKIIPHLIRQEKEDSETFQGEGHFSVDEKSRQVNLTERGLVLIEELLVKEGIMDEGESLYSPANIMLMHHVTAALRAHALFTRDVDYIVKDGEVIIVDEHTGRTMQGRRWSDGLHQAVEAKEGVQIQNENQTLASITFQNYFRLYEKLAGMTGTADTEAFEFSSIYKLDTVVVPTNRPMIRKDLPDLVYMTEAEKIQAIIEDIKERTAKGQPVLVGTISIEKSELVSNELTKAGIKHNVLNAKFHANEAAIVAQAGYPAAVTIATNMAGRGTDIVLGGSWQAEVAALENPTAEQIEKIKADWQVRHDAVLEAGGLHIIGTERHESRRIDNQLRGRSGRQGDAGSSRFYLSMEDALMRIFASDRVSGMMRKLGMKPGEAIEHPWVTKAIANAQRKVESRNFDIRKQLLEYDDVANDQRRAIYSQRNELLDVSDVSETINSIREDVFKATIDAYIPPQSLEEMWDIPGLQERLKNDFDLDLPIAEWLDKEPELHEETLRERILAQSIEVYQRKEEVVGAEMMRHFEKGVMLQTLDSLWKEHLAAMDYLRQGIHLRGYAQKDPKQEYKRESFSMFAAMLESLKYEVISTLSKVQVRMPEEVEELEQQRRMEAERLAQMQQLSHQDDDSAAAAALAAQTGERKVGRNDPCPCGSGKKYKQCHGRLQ
Target sequence in this assay (P0AGA2 whole entry, further chain): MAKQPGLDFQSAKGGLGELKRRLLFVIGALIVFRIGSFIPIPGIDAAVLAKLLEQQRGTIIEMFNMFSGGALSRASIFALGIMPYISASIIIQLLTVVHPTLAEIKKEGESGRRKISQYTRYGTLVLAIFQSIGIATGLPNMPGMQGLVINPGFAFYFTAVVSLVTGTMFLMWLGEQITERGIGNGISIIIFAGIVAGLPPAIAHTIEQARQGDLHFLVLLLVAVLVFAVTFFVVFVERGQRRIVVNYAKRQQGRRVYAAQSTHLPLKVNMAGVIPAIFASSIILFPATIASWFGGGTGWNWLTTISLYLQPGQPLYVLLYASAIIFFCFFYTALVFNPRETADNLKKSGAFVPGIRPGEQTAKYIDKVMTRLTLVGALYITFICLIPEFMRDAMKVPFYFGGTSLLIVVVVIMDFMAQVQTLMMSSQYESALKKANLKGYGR
Target sequence in this assay (P0AG96 whole entry, further chain): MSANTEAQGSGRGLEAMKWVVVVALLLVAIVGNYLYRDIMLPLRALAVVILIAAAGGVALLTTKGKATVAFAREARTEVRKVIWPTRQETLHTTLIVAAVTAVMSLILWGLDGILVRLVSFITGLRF

[7] = target: T2, EcSecA; test: biochemical; details: IC50, Protein Translocation, Table 1
Target sequence in this assay (P0AG99 whole entry): as the sequence (P0AG99 whole entry) above
Target sequence in this assay (P10408 whole entry): as the sequence (P10408 whole entry) above
Target sequence in this assay (P0AGA2 whole entry, further chain): as the sequence (P0AGA2 whole entry, further chain) above
Target sequence in this assay (P0AG96 whole entry, further chain): as the sequence (P0AG96 whole entry, further chain) above

[8] = target: BsSecA2; details: read-out: IC50, Intrinsic ATPase, BsSecA2; Table 1
[9] = system: S. pyogenes, MGAS5005; test: MIC95, S. pyogenes MGAS5005; format: cell-based; details: Streptococcus pyogenes, MGAS5005; read-out: MIC95, S. pyogenes MGAS5005
[10] = system: S. aureus 8325-4; test: Bacteriostatic effect, S. aureus 8325-4 (WT); details: Staphylococcus aureus, 83254, read-out: Bacteriostatic effect, MIC, WT 8325-4
[11] = target: T2, EcSecA; test: biochemical; set-up: species or system E. coli; details: IC50, Intrinsic ATPase, Table 1, full-length EcSecA
Target sequence in this assay (P10408 whole entry): as the sequence (P10408 whole entry) above

[12] = target: SpSecA (Streptococcus pyogenes, UniProt Q99Y96); format: cell-based; details: read-out: IC50, Ion Channel activity, SpSecA
Chain of SpSecA (Q99Y96 whole entry): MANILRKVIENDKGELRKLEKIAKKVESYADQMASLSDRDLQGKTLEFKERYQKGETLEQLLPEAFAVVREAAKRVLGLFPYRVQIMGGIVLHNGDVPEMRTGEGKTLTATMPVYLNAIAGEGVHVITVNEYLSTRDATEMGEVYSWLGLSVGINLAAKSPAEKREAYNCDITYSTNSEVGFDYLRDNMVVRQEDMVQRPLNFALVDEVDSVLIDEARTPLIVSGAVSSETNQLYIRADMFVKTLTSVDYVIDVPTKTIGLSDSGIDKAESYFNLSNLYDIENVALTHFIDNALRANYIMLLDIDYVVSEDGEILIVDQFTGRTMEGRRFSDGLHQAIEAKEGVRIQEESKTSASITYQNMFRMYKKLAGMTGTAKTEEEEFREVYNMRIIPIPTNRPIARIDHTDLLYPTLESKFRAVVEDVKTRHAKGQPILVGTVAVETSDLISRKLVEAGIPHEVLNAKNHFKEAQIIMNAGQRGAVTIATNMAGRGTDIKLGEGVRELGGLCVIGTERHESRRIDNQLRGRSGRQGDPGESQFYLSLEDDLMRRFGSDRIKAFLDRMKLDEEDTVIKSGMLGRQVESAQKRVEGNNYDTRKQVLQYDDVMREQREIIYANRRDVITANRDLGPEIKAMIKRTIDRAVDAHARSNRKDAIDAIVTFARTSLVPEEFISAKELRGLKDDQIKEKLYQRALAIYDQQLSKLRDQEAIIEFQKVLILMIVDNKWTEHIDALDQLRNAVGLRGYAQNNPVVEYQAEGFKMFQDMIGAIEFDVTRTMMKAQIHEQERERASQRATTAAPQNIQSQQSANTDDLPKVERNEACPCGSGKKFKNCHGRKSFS

[13] = target: PaSecA (Pseudomonas aeruginosa, UniProt Q9LCT3); test: cell-based; format: cell-based; details: IC50, Ion Channel activity, PASecA, Table 1
[14] = target: MtbSecA (Mycobacterium tuberculosis, UniProt P9WGP5); test: cell-based
Chain of MtbSecA (P9WGP5 whole entry): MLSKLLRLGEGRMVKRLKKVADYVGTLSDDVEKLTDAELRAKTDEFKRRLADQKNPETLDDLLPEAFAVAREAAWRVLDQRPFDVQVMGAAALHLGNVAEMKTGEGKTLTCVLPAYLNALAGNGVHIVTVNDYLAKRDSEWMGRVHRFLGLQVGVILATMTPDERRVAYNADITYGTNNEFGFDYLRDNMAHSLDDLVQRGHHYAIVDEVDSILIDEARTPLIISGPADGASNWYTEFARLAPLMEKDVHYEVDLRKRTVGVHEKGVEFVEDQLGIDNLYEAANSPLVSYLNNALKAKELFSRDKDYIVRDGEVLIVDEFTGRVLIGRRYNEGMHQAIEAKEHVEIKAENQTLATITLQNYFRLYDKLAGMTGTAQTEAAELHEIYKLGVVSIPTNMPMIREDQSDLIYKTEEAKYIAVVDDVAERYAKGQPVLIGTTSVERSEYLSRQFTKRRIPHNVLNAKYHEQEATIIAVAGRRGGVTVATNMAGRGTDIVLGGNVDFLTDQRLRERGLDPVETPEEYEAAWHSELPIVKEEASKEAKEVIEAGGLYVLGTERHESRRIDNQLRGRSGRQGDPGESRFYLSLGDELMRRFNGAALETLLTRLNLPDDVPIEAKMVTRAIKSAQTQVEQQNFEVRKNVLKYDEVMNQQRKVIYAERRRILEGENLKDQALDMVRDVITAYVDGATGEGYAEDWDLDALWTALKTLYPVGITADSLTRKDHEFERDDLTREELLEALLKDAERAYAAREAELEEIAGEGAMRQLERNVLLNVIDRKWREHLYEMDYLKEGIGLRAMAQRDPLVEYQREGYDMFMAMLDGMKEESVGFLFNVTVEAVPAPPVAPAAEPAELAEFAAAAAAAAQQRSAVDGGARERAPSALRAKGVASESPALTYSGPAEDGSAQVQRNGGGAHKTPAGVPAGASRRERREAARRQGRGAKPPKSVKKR

[15] = system: S. aureus 6538; test: Bactericidal effect, S. aureus 6538; details: 9 μg/ml, 1 hour at 37° C., FIG. 5
[16] = target: T1, SaSecA1; details: read-out: IC50, ATPase activity, SaSecA1; Table 7
[17] = system: S. aureus deletion strains (NorA−, MepA−) and strains (NorA++, MepA++) with over-expressed efflux pumps; test: Antimicrobial effect with deletion or over expression of efflux pumps in S. aureus
[18] = target: BsSecA (Bacillus subtilis, UniProt P28366); test: biochemical; format: biochemical, B. subtilis
Chain of BsSecA (P28366 whole entry): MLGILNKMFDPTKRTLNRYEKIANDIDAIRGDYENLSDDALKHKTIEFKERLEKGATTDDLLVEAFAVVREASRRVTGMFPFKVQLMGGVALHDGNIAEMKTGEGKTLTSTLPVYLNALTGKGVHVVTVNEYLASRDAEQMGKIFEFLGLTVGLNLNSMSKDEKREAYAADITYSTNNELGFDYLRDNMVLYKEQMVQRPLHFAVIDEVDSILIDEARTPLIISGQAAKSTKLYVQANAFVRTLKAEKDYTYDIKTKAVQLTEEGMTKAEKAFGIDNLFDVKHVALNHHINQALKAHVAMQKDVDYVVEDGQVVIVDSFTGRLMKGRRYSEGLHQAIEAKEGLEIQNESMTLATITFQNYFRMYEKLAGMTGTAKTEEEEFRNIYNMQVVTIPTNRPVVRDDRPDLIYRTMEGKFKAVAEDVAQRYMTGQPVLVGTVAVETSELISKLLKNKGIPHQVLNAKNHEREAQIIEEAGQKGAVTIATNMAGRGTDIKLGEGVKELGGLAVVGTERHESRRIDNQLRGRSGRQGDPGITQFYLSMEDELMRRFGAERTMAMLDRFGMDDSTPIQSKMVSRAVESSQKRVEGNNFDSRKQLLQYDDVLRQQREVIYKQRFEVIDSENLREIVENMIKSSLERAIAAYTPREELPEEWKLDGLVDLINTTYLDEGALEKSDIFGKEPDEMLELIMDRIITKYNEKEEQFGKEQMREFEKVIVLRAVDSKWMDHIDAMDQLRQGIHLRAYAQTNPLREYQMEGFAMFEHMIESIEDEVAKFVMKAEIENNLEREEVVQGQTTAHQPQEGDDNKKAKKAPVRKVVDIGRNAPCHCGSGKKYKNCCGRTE

[19] = system: B. anthracis Sterne; test: microbe, parasite or virus in culture; format: cell-based; details: Bacillus anthracis, read-out: Bacteriostatic MIC95, B. anthracis Sterne

CCCCCCC1c2ccc(O)cc2Oc2cc(O)ccc21 [SCA-50]
pIC50 [1]: 5.60
pIC50 [2]: 5.96
pIC50 ([2]; IC50, Ion-channel activity, SaSecA1, Table 7): 5.96
Amount of α-hemolysin, enterotoxin B, and TSST-1 in the supernatant [3]: significantly decreased
pIC50 [4]: 5.40
MIC fold less than the MIC of ampicillin, kanamyin, erythromycin, and rifampicin ([5]; S. aureus Mu50): 250 fold
MIC ([5]; MU50, read-out: Bacteriostatic MIC95, S. aureus Mu50, Table 2): 2.4 µg/mL
MIC ([5]; MU50, read-out: Bacteriostatic effect MIC, S. aureus Mu50, Table 10 and Example 4): 4 µg/mL
MIC ([5]; MU50, read-out: Bacteriostatic effect, MIC, S. aureus Mu50, Table 8): 3.7 µg/mL
MIC ([5]; MU50, read-out: MIC95 against drug resistant S. aureus Mu50): 2.4 µM
Bacteriostatic effect MIC, S. aureus Mu50 ([5]; Table 10 and text of Example 4): 3.7 µg/mL
pIC50 [6]: 4.22
pIC50 [7]: 4.42
pIC50 [8]: 4.70
MIC [9]: 6.25 µM (≈ 1.86 µg/mL)
MIC [10]: 3.7 µg/mL (≈ 12.4 µM)
pIC50 [11]: 4.22
pIC50 [12]: 5.72
pIC50 [13]: 5.52
pIC50 [14]: 5.52
Bactericidal activity, log numbers killed, S. aureus 6538 [15]: 2 log numbers
pIC50 [16]: 4.70
Change of MIC on overexpression or deletion of NorA or MepA [17]: did not significantly change
pIC50 [18]: 4.48
MIC [19]: 1.7 µg/mL (≈ 5.7 µM)
